According to US12208080B2, “Compositions and methods for modulation of extracellular vesicle release and treatment of neurological disorders” (GEORGE MASON RESEARCH FOUNDATION, INC., priority 2018, dated 2025):
Counter-ions that a name gives are not always drawn.

How the values were obtained:
Assay type in all cases: cell-based
[1] = system: HTLV-1 infected T-cells (HUT 102); test: EV release from HTLV-1 infected T-cells, Western blot for Tax, CD63, CD9; conditions: 10 μM AZT, 10K units IFN-α or both, 5 days, FIG. 6
Description: HTLV-1 infected T-cells (HUT 102) were treated with 10 μM AZT, 10K units of IFN-α, or a combination of the two for 5 days. Resulting supernatants were enriched for extracellular vesicles using NT80/82 and analyzed by Western blot for the presence of Tax, CD63, CD9, and Actin.
The incorporation of the human T-lymphotropic virus type 1 (HTLV-1) protein, Tax, into extracellular vesicles has been implicated in enhanced survival of recipient cells thereby contributing to a cancer phenotype. Applicant examined the effect of Azidothymidine (AZT) and interferon-α (IFN-α), both therapeutics commonly used in the treatment of HTLV-1, on the release of EVs from HTLV-1 infected cells. Here, HTLV-1 infected T-cells (HUT 102) were treated with 10 μM AZT, 10K units of IFN-α, or a combination of the two for 5 days. Resulting supernatants were enriched for extracellular vesicles using NT80/82 and analyzed by Western blot for the presence of Tax, CD63, CD9, and Actin.

[2] = system: autophagy proteins (p62, LC3, ATG12-ATG5, ATG12, Beclin-1) in U1 cells; test: Autophagy protein profile, CBD versus autophagy drugs, in U1 cells and their EVs (Western blot); conditions: 5 days; for EV-associated LC3 II / EV-associated LC3 I / EV-associated p62: Bafilomycin A1 50 nM, SB 203580 20 μM, Wortmannin 2 nM; for EV-associated LC3 II: vs untreated infected control; for EV-associated LC3 I / EV-associated p62: CBD 10 μM, lower panel
Description: FIGS. 18A-18B are gels showing CBD promotes autophagy turnover, resulting in a decrease in extracellular autophagosomal secretion. A) U1 cells (1×10^6) were treated±CBD (10 μM) for the following incubation periods: 0, 6, 24, and 48 hours. Cells were pelleted and lysed, exosomes from supernatants were enriched with NT80/82 beads overnight at 4° C. Samples were run through SDS-PAGE and western blotted for autophagy proteins (p62 and LC3), and Actin. B) U1 cells (1×10^6) were treated±10 μM CBD (every day), Rapamycin (50 nM), INK128 (50 nM), Bafilomycin A1 (50 nM), SB 203580 (20 μM), Wortmannin (2 nM) for a 5-day incubation period. Cells were pelleted and lysed, exosomes from supernatants were enriched using NT80/82 beads overnight at 4° C. Samples were run through SDS-PAGE and western blotted for autophagy proteins (p62, LC3, ATG12-ATG5, ATG12, Beclin-1), and Actin.
FIGS. 21A-21K are graphs showing normalized densitometry analysis of CBD and autophagy drug treatment on HIV-1 infected monocytes. Intracellular (A) p62, (B) LC3 I, (C) LC3 II, (D) ATG12-ATG5 complex, (E) ATG12, and (F) Beclin-1, and extracellular (G) p62, (H) LC3 I, (I) LC3 II, (J) ATG12-ATG5 complex, and (K) Beclin-1 densitometry counts were calculated from the Western blot data in FIG. 5B, normalized to respective intracellular and extracellular Actin levels, and plotted.
To determine the specific points at which CBD inhibits intracellular and extracellular autophagosome formation and secretion, we compared CBD treatment of U1 monocytes with known inhibitors of different points in the autophagy pathway. Cell viability was assessed among a panel of titrated autophagy drugs and the least toxic concentration per drug was utilized (FIG. 20). We treated U1 cells with CBD (10 μM) every day, Rapamycin (50 nM), INK128 (50 nM), Bafilomycin A1 (50 nM), SB 203580 (20 μM), or Wortmannin (2 nM) for 5 days. Our rationale for using these drugs was that they regulate different steps of autophagy including nucleation inhibition by inhibiting MTOR activity (Rapamycin, INK128) or by inhibiting pre-autophagosomal VPS34 complex activity (Wortmannin, SB 203580), and autophagosome-lysosome fusion inhibition (Bafilomycin A1). Therefore, a side-by-side comparison to CBD would potentially allow for a better definition of which step of autophagosome formation is primarily regulated by CBD. U1 cells were treated with the autophagy regulators and harvested along with their corresponding supernatants for further analysis using Western blot against p62, LC3, ATG12-ATG5 complex, free ATG12, Beclin-1, and Actin. Results in FIG. 18B (intracellular proteins, top panel) show autophagy protein profiles associated with the various autophagy regulators. […] The corresponding supernatants were enriched for EVs and also analyzed for the presence of autophagy proteins.

[3] = system: ESCRT pathway proteins (VPS4); test: Western blot of ESCRT pathway proteins in U1 whole cell extracts; conditions: 0.1, 1, 10 μM, 5 days, FIG. 5B
Description: U1 cells were pretreated with cART (45 μM) for 3 days followed by an additional dose of cART and tetracycline antibiotics (10 nM) for 5 days. Cells were lysed, and extracts were used for Western blot analysis for ESCRT proteins [ESCRT-1 (TSG101), -11 (EAP20, EAP45), -III (CHMP6), and exit (VPS4)] and Actin levels. […]
U1 cells were treated with a titration of ethylene glycol-bis(p-aminoethyl ether)-N,N,N′,N′-tetraacetic acid (EGTA) (0.1, 1, and 10 μM) for 5 days and whole cell extracts were analyzed by Western blot for ESCRT pathway proteins and Actin.
Tetracycline class antibiotics including tetracycline, oxytetracycline, minocycline, doxycycline, methacycline, and demeclocycline have the potential to mitigate EV-associated pathogenesis by also modulating EV release. […] The tetracycline antibiotic family are chelators of divalent cations, including Ca2+ and Mg2+. Therefore, Applicant also tried to determine whether the chelating property of Oxytetracycline could possibly be responsible for the manipulation of the ESCRT pathway proteins levels.

[4] = system: RNA polymerase II (Pol II) loading; test: Chromatin immunoprecipitation of Pol II, qPCR for TAR DNA; conditions: U1; CBD 10 μM, Flavo 50 nM; 2-hour and 6-hour; FIG. 15C
Description: FIGS. 15A-15C are graphs and gels showing cannabidiols lower intracellular viral transcription and downstream viral products. U1 cells (1×10^6) were treated with a titration of CBD (1, 5, 10 μM) and THC (1, 5, 10 μg/mL) every day for 5 days. A) Intracellular RNA was isolated and analyzed through RT-qPCR for HIV-1 viral transcripts TAR and env. Each bar represents an average of three independent replicates. B) U1 cells (2×10^6) were treated with a titration of CBD (1, 5, 10 μM) every day for 5 days. Cells pellets were lysed, run through SDS-PAGE, and western blotted for (p-)/NF-κB, autophagosomal markers (p63, LC3), EV biogenesis marker VPS4, viral markers (gp120, Nef, p24), and Actin. C) U1 cells (5×10^6) were treated±CBD (10 μM) and Flavopiridol hydrochloride (50 nM; indicated as Flavo) and incubated for the following time points: 0 minutes, 2 hours and 6 hours. Cells were cross-linked with 1% formaldehyde solution and ChIP-ed for IgG and Pol II. ChIP DNA samples were analyzed via qPCR for TAR and env. Student's t-test was used for statistical analysis, where *p-value≤0.05; **p-value≤0.01, ***p-value≤0.001. […]
U1 monocytes were treated with CBD (10 μM) and Flavo (50 nM) for short periods (0, 2 and 6 hours) due to the fact that HIV-1 transcription activity is a rapid event that can be scored using chromatin immunoprecipitation (ChIP) assay for factor occupancy. […]

[5] = CBD 10 μM every day, Rapamycin 50 nM, INK128 50 nM, FIG. 18B top panel

Molecule: Cc1cn([C@H]2C[C@H](N=[N+]=[N-])[C@@H](CO)O2)c(=O)[nH]c1=O [AZT, 3′-azido-2′3′-di deoxythymidine]
- amount of vesicles released (CD63 and CD9) [1]: increase in the amount of vesicles release

Molecule: CO/C1=C\C(C)=C\[C@@H](C)[C@@H](O)[C@@H](C)C/C(C)=C/C=C/[C@H](OC)[C@@H]([C@@H](C)[C@@H](O)[C@H](C)[C@@]2(O)C[C@@H](O)[C@H](C)[C@@H](C(C)C)O2)OC1=O [Bafilomycin A1]
- EV-associated LC3 II [2]: elevated levels
- EV-associated LC3 I ([2]; Rapamycin 50 nM, INK128 50 nM): elevated levels
- EV-associated p62 ([2]; Rapamycin 50 nM, INK128 50 nM): sustained levels

Molecule: O=C(O)CN(CCOCCOCCN(CC(=O)O)CC(=O)O)CC(=O)O [EGTA, ethylene glycol-bis(p-aminoethyl ether)-N,N,N′,N′-tetraacetic acid]
- levels of measured ESCRT proteins [3]: no change

Molecule: CN1CC[C@H](c2c(O)cc(O)c3c(=O)cc(-c4ccccc4Cl)oc23)[C@H](O)C1 [Flavo, Flavopiridol hydrochloride hydrate]
- Pol II-associated TAR DNA versus untreated [4]: statistically significant decreases

Molecule: CC(C)n1nc(-c2ccc3oc(N)nc3c2)c2c(N)ncnc21 [INK128]
- intracellular ATG12-ATG5 [2, 5]: low levels
- intracellular Beclin-1 [2, 5]: high levels
- intracellular LC3 I [2, 5]: low levels
- EV-associated LC3 I ([2]; Rapamycin 50 nM, INK128 50 nM): reduction
- EV-associated p62 ([2]; Rapamycin 50 nM, INK128 50 nM): reduction

Molecule: C[S+]([O-])c1ccc(-c2nc(-c3ccncc3)c(-c3ccc(F)cc3)[nH]2)cc1 (stereo not drawn) [SB 203580]
- EV-associated LC3 II [2]: elevated levels
- EV-associated LC3 I ([2]; Rapamycin 50 nM, INK128 50 nM): elevated levels
- EV-associated p62 ([2]; Rapamycin 50 nM, INK128 50 nM): sustained levels

Molecule: IFN-α
- amount of vesicles released (CD63 and CD9) [1]: decreases the amount of vesicles released
